Laboratory results published in US10995068B2, “Synthetic sphingolipid-like molecules, drugs, methods of their synthesis and methods of treatment” (The Regents of the University of California, priority 2015, dated 2021).

Legend:
[1] = test system: subcutaneous SW620 xenograft tumors; test: SW620 xenograft study in nude mice; assay type: in vivo; settings: 20 mg/kg daily by intraperitoneal injection
Protocol: In even another exemplary study, anti-neoplasm potency of the constrained pyrrolidine sphingolipid-like compounds in xenograft tumor animal studies. Nude mice bearing subcutaneous SW620 xenograft tumors were treated daily with 10 mg/kg FTY720 or 20 mg/kg of compounds 5 or 15 by intraperitoneal injection. […] Furthermore, these compounds retain many of the beneficial abilities of FTY720, such as, for example water solubility, oral bioavailability, and anti-tumor activity but no longer trigger bradycardia. Thus, these compounds are ideal for medicaments and treatments for neoplasms.
SW620 and SW480 xenograft studies: For SW620 xenograft studies, two and one half million luciferase-expressing SW620 colon cancer cells suspended in PBS with 2% FCS are injected subcutaneously in the flank of 7 week old male nude mice (Charles Rivers Labs, Crl:NU(NCr)-Foxn1nu). When tumors reached 100 mm^3 in volume, mice are assigned to groups with matched average tumor volumes and animal weights. Four groups containing 7 mice are treated intraperitoneally with either vehicle (0.9% saline), 10 mg/kg FTY720, or 20 mg/kg compound 5 or compound 15. Tumor length and width are measured with calipers at 7 and 11 days of treatment. Tumor volume is calculated using the formula volume (mm^3)=length [mm]×(width [mm])^2×0.52. The average fold change in the volume of each tumor over time is shown.

[2] = test system: PC3 prostate cancer cells; test: Cell Titer Glo proliferation assay in PC3; assay type: cell-based, human; settings: Cell Titer Glo, 72 h; Mean ± SEM, n ≥ 3; read-out: IC50 values in prostate cancer cell lines, PC3
Summary of the method: (§1)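 Cells plated at 1,000 cells/well and left at least 24 h, then exposed to compound for 72 h. Permeabilised with 0.1% Triton-X100, lysed with Cell Titer-Glo reagent, luminescence read; IC50 from dose-response curves. PC3 grown in F12K with 10% FCS, DU145 in MEM with 10% FCS and pyruvate.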

[3] = test system: DU145 prostate cancer cells; test: Cell Titer Glo proliferation assay in DU145; assay type: cell-based, human; settings: 72 h, Mean ± SEM, n ≥ 3, read-out: IC50 values in prostate cancer cell lines, DU145
Summary of the method: as §1

[4] = test system: fusion of LC3-positive autophagosomes with LAMP1-positive lysosomes; test: Autophagosome-lysosome fusion in chloroquine-treated cells; assay type: cell-based
Protocol: It is known in the art that cells adapt to nutrient stress by increasing autophagic flux. However, autophagosome-lysosome fusion reactions depend upon […] release via TRPML1 channels that are activated by PI(3,5)P2. […] Chloroquine (CQ) is molecule that stabilizes the transient autophagosomes. Cells were treated with CG to stabilize autophagolysosomes and subsequently treated with FTY720, SH-BC-893, or YM201636. […] Phosphatidylinositol 5-Phosphate (PI(5)P) is essential for autophagosome biogenesis upon glucose depletion. PI(5)P is produced by dephosphorylating PI(3,5)P2, and thus PI(5)P might also be mis-localized in SH-BC-893-treated cells, and thus also contributing to the disruption of autophagosome formation. […] Thus, SH-BC-893 inhibited both autophagosome formation and degradation. As a control, Vac14 over-expression limited vacuolation (FIGS. 55F, 61F, and 62B) and rescued autophagic flux in SH-BC-893-treated cells (FIGS. 61A, 61B, 61D and 61E).
(§2) Light Microscopy: Brightfield and epifluorescence microscopy were conducted using a Nikon TE2000-S fluorescence microscope; confocal microscopy was performed on a Zeiss LSM780 confocal microscope or Nikon Eclipse Ti spinning disk confocal microscope. […] Co-localization was determined using JACoP plugin in ImageJ software. Macropinocytosis was measured after 16 h incubation in serum-free DMEM. p53−/−; LSL-K-RasG12D MEFs before (LSL) or after (KRasG12D) introduction of Cre were serum starved for 16 h and then treated with macropinocytosis inhibitor 5-(N-ethyl-N-isopropyl) amiloride (EIPA, 75 μM) for 1 h or SH-BC-893 for 6 h. Oregon Green dextran (Life Technologies, cat #D7173) (1 mg/mL) and Lysotracker Red (Life Technologies, cat #L-7525) (1:2,000 dilution) were added for 30 min and live cells were evaluated on the spinning disc confocal microscope. […]

[5] = test system: K-RasG12D expressing cells; test: Macropinosome fusion with lysosomes; assay type: cell-based; settings: dextran
Excerpt: In cells with activated Ras, macropinocytosis might also confer resistance to nutrient transporter down-regulation. However, PI(3,5)P2 is also required for macropinosome degradation. […] Macropinosomes that fail to fuse with lysosomes would not be able to supply nutrients, such as amino acids. Thus, by disrupting PIKfyve localization, sphingolipid-like compounds limit access to lysosome-derived nutrients at the same time it down-regulates transporters for amino acids and glucose.
as §2

Row | IC50 [2] | IC50 [3] | Structure (SMILES) | tumor growth of SW620 xenografts [1] | fusion of LC3-positive autophagosomes with LAMP1-positive lysosomes [4] | macropinosome fusion with lysosomes [5]
1 | 6.3 ± 0.3 µM | 5.9 ± 0.3 µM | CCCCCCCCc1ccc([C@H]2CCN[C@@H]2COC)cc1.Cl [Compound 15] | inhibited tumor growth | – | –
2 | – | – | Nc1ccc(C(=O)Nc2cccc(-c3nc(N4CCOCC4)c4oc5ncccc5c4n3)c2)cn1 [YM201636, reference compound] | – | reduced fusion | dramatically reduced macropinosome fusion with lysosomes
